Measured values reported in patent US20210284668A1, “GOLD (I)-PHOSPHINE 1,2,3-TRIAZOLE DERIVATIVES WITH ANTIBIOTIC PROPERTIES” (Centre National de la Recherche Scientifique, priority 2018, published 2021).
Where “and” joins values, the source holds several entries; their conditions need not be identical. Equal values may be shown once.

Columns and labels:
S. aureus ATCC700699 = assay: MIC by microdilution, S. aureus ATCC700699; format: cell-based, Staphylococcus aureus; parameters: unit not given here; conditions: S. aureus ATCC700699 (MecA positive, glycopeptide resistant), in duplicate
Protocol: (§1) The antibacterial profile of each derivative was evaluated by the standard microdilution method for susceptibility testing on 16 different strains, following the guidelines of CLSI. The selected panel included: • S. aureus ATCC25923 (MecA negative, wild-type) • S. aureus ATCC29213 (MecA negative, wild-type) • S. aureus ATCC700699 (MecA positive, glycopeptide resistant) • S. aureus ST20131365 (MecA positive, glycopeptide resistant) • S. epidermidis ATCC14990 (MecA negative, wild-type) • S. epidermidis ATCC35984 (MecA positive) • S. epidermidis ST20140436 (MecA positive, glycopeptide resistant) • S. epidermidis ST20150446 (MecA positive, glycopeptide resistant) • E. faecalis JH2-2 (wild-type) • E. faecalis UCN41 (VanA positive, glycopeptide resistant) • E. faecalis V583 (VanB positive, glycopeptide resistant) • E. faecium ATCC19434T (wild-type) • E. faecium BM4147 (VanA positive, glycopeptide resistant) • E. faecium AUS0004 (VanB positive, glycopeptide resistant) • E. coli ATCC25922 (wild-type) • Clostridium difficile ATCC9689 (wild-type)
(§2) Both series issued from the SAR study were evaluated for their antibacterial activity on a panel of characterized strains obtained from the French National Reference Centers for Staphylococci (Lyon, Pr. Fréderique Laurent) and for Enterococci (Caen, Pr. Vincent Cattoir), respectively. As shown in the following tables, both series contain very active compounds on multi-resistant Gram-positive bacteria (Minimal Inhibitory Concentrations lower than comparator antibiotic ampicillin). Furthermore, a very important antibacterial effect has been shown too on a strain of Clostridium difficile, a Gram-positive, spore-forming, bacillus responsible for post-antibiotic diarrhoae.
(§3) The antibacterial activity of test compounds was evaluated on a selected panel of Gram-positive (4 Staphylococcus aureus, 4 Staphylococcus epidermidis, 3 Enterococcus faecalis, 3 Enterococcus faecium, 1 Clostridium difficile) and Gram-negative strains (1 Escherichia coli, 1 Klebsiella pneumoniae, 1 Pseudomonas aeruginosa, 1 Acinetacter baumannii) with known features of antibiotic resistance (from wild-type susceptibility to multi-drug resistance). The Minimal Inhibitory Concentration (MIC) of test compounds was determined in duplicate by the microdilution method in 96-well microplates with a final volume of 100 μL per well and Mueller-Hinton broth as the growth medium, as recommended by the CLSI (Clinical and Laboratory Standards Institute, document Mo7-A10, USA).

E. faecalis JH2-2 = assay: MIC by microdilution, E. faecalis JH2-2; format: cell-based, Enterococcus faecalis; parameters: unit not given here; conditions: E. faecalis JH2-2 (wild-type), in duplicate
Protocol: as §1, §2, §3

[1] = test system: panel of Gram-positive and Gram-negative strains; assay: Antibacterial profile on the selected panel of strains; format: cell-based; conditions: summary of Tables 1-12
Protocol: as §1, §2, §3

S. aureus ATCC25923 = assay: MIC by microdilution, S. aureus ATCC25923; format: cell-based, Staphylococcus aureus; conditions: S. aureus ATCC25923 (MecA negative, wild-type), Mueller-Hinton broth, in duplicate
Protocol: as §1, §2, §3

S. epidermidis ATCC35984 = assay: MIC by microdilution, S. epidermidis ATCC35984; format: cell-based, Staphylococcus epidermidis; conditions: S. epidermidis ATCC35984 (MecA positive), in duplicate
Protocol: as §1, §2, §3

E. faecalis UCN41 = assay: MIC by microdilution, E. faecalis UCN41; format: cell-based, Enterococcus faecalis; parameters: unit not given here; conditions: E. faecalis UCN41 (VanA positive, glycopeptide resistant), in duplicate
Protocol: as §1, §2, §3

E. faecium ATCC19434T = assay: MIC by microdilution, E. faecium ATCC19434T; format: cell-based, Enterococcus faecium; parameters: unit not given here; conditions: E. faecium ATCC19434T (wild-type), in duplicate
Protocol: as §1, §2, §3

E. faecium BM4147 = assay: MIC by microdilution, E. faecium BM4147; format: cell-based, Enterococcus faecium; parameters: unit not given here; conditions: E. faecium BM4147 (VanA positive, glycopeptide resistant), in duplicate
Protocol: as §1, §2, §3

S. epidermidis ATCC14990 = assay: MIC by microdilution, S. epidermidis ATCC14990; format: cell-based, Staphylococcus epidermidis; conditions: S. epidermidis ATCC14990 (MecA negative, wild-type), in duplicate
Protocol: as §1, §2, §3

S. aureus ST20131365 = assay: MIC by microdilution, S. aureus ST20131365; format: cell-based, Staphylococcus aureus; conditions: S. aureus ST20131365 (MecA positive, glycopeptide resistant), in duplicate
Protocol: as §1, §2, §3

[2] = test system: S. epidermidis ST20140436; assay: MIC by microdilution, S. epidermidis ST20140436; format: cell-based, Staphylococcus epidermidis; conditions: S. epidermidis ST20140436 (MecA positive, glycopeptide resistant), in duplicate
Protocol: as §1, §2, §3

[3] = test system: Clostridium difficile ATCC700057; assay: MIC by microdilution, Clostridium difficile; format: cell-based; conditions: strain ATCC70057 [sic] (Tables 1-2) / ATCC700057 (Tables 3-10), in duplicate
[4] = test system: S. epidermidis ST20150446; assay: MIC by microdilution, S. epidermidis ST20150446; format: cell-based, Staphylococcus epidermidis; conditions: S. epidermidis ST20150446 (MecA positive, glycopeptide resistant), in duplicate
Protocol: as §1, §2, §3

E. faecalis V583 = assay: MIC by microdilution, E. faecalis V583; format: cell-based, Enterococcus faecalis; conditions: E. faecalis V583 (VanB positive, glycopeptide resistant), in duplicate
Protocol: as §1, §2, §3

E. faecium AUS0004 = assay: MIC by microdilution, E. faecium AUS0004; format: cell-based, Enterococcus faecium; conditions: E. faecium AUS0004 (VanB positive, glycopeptide resistant), in duplicate
Protocol: as §1, §2, §3

E. coli ATCC25922 = assay: MIC by microdilution, E. coli ATCC25922; format: cell-based, Escherichia coli; conditions: E. coli ATCC25922 (wild-type), in duplicate
Protocol: as §1, §2, §3

Row | SMILES | Minimal Inhibitory Concentration (MIC) (S. aureus ATCC700699) | Minimal Inhibitory Concentration (MIC) (E. faecalis JH2-2) | antimicrobial / antibacterial activity (in words) [1] | Minimal Inhibitory Concentration (MIC) (S. aureus ATCC25923) | Minimal Inhibitory Concentration (MIC) (S. epidermidis ATCC35984) | Minimal Inhibitory Concentration (MIC) (E. faecalis UCN41) | Minimal Inhibitory Concentration (MIC) (E. faecium ATCC19434T) | Minimal Inhibitory Concentration (MIC) (E. faecium BM4147) | Minimal Inhibitory Concentration (MIC) (S. epidermidis ATCC14990) | Minimal Inhibitory Concentration (MIC) (S. aureus ST20131365) | Minimal Inhibitory Concentration (MIC) [2] | Minimal Inhibitory Concentration (MIC) [3] | Minimal Inhibitory Concentration (MIC) [4] | Minimal Inhibitory Concentration (MIC) (E. faecalis V583) | Minimal Inhibitory Concentration (MIC) (E. faecium AUS0004) | Minimal Inhibitory Concentration (MIC) (E. coli ATCC25922)
1 | CC[P+](CC)(CC)[Au-][c]1nn[nH]c1CNc1c(F)cc2c(=O)c(C(=O)O)cn3c2c1OCC3C (stereo not drawn) [TMB49] | 0.25 | 1 | have antimicrobial activity | 0.125 | ≤0.06 | 1 | 0.5 and 1 | 1 | ≤0.06 | – | – | – | – | – | – | –
2 | C#CCNc1c(F)cc2c(=O)c(C(=O)O)cn3c2c1OCC3C (stereo not drawn) [TMB51] | >8 | >8 | do not show an antibacterial activity | 2 | 2 | >8 | >8 | >8 | 4 | – | – | – | – | – | – | –
3 | CC[P+](CC)(CC)[Au-][c]1nn[nH]c1CN1C(=O)NC2CSC(CCCCC(=O)O)C21 (stereo not drawn) [TMB48] | 0.5 | 1 | have antimicrobial activity | 0.25 | 0.125 | 1 | 1 | 2 | 0.125 | – | – | – | – | – | – | –
4 | CC[P+](CC)(CC)[Au-][c]1nn[nH]c1CNC(=O)NC(C(=O)O)c1ccccc1 (stereo not drawn) [TMB52] | 0.125 | 0.25 | have antimicrobial activity | – | ≤0.06 | 0.25 | 0.25 | 0.25 | ≤0.06 | – | – | – | – | – | – | –
5 | CC(=O)OC[C@H]1O[C@@H]([S-])[C@H](OC(C)=O)[C@@H](OC(C)=O)[C@@H]1OC(C)=O.CCP(CC)CC.[Au+] [Auranofin, reference compound] | ≤0.06 | – | – | – | ≤0.06 | – | ≤0.06 | – | ≤0.06 | – | – | – | – | – | – | –
6 | CC[P+](CC)(CC)[Au-][c]1nn[nH]c1CCC(=O)N[C@H](CO)C(=O)O [TMB38] | 0.125 | 0.125 | have antimicrobial activity | ≤0.06 | ≤0.06 | 0.125 | ≤0.06 | 0.125 | ≤0.06 | ≤0.06 | ≤0.06 | 0.125 and 0.25 | ≤0.06 | 0.125 | 0.125 | –
7 | C#CCOC(=O)N[C@@H](C(=O)N[C@@H]1C(=O)N2[C@@H]1SC(C)(C)[C@@H]2C(=O)O)c1ccccc1 [TMB2] | – | – | do not show an antibacterial activity | – | – | – | – | – | – | – | – | – | – | – | – | –
8 | CC[P+](CC)(CC)[Au-][c]1nn[nH]c1CNC(=O)NC(C(=O)NC1C(=O)N2C1SC(C)(C)C2C(=O)O)c1ccccc1 (stereo not drawn) [TMB24] | 0.125 and 0.25 | 0.25 and 0.5 | have antimicrobial activity | 0.125 | 0.125 | 0.25 | 0.5 | 0.5 | ≤0.06 | 0.25 | – | ≤0.06 | – | 0.25 and 0.5 | 0.5 | >8
9 | CC(=O)O.CC[P+](CC)(CC)[Au-][c]1nn[nH]c1CCN [TMB50] | 0.125 | 0.25 | have antimicrobial activity | 0.125 | ≤0.06 | 0.5 | 0.25 | 0.25 | ≤0.06 | – | – | – | – | – | – | –
10 | C[C@@H]1COc2c(N3CCN(C)CC3)c(F)cc3c(=O)c(C(=O)O)cn1c23 [TMB47, Ofloxacin, reference compound] | >8 | 2 | have antimicrobial activity | 0.25 | 0.125 | 2 | 4 | 1 | 0.25 | – | – | – | – | – | – | –
